Literature values, collected in patent publication US20130184245A1, “ENDOMETRIOSIS TREATMENT” (DRUGTECH CORPORATION, priority 2007, published 2013).
Read-outs that look alike come from different tables or passages of the source.

How the values were obtained:
[1] = system: pelvic endometriosis
[2] = intravaginal gel, 100 to 200 mg/day
[3] = system: deeply infiltrating endometriosis
[4] = intravaginal danazol therapy
[5] = system: endometriosis; settings: daily administration of 5 mg danazol in suppository form
[6] = system: women with endometriosis and chronic pelvic pain symptoms; settings: intravaginal danazol therapy, 22 women
[7] = system: women with endometriosis; settings: intravaginal gel, 100 to 200 mg/day
[8] = not given; remark: listed apart in the source
[9] = vaginal suppository 100 mg/day versus per os 400 mg/day
[10] = system: pelvic endometriosis; settings: vaginal ring containing 1000 mg danazol
[11] = system: women with endometriosis

plasma levels of danazol [2] | peripheral levels of danazol [4] | serum danazol levels (danazol 400 mg/day per os) | serum danazol levels (topical danazol administration (vaginal ring 1000 mg)) | serum danazol concentrations ([8]; oral therapy with danazol at 400 mg/day) | serum danazol concentrations ([8]; vaginal danazol therapy (ring 1500 mg)) | danazol concentrations in the ovary and uterus, vaginal versus oral administration [9] | serum danazol concentration, vaginal versus oral administration [9] | Structure (SMILES) | women in whom conception was enabled while the ring was in place ([1]; of 35 infertile women, vaginal ring 2000 to 3500 mg danazol) | effect on dysmenorrhea and pelvic endometriosis ([1]; vaginal ring containing 2000 to 3500 mg danazol, 35 infertile women) | women in whom ovulation and conception occurred ([3]; out of 31 infertile women with deeply infiltrating endometriosis, vaginal ring 1500 mg) | time to elimination of dysmenorrhea ([3]; vaginal ring containing 1500 mg danazol) | effect on dyspareunia and dysmenorrhea [5] | management of chronic pelvic pain secondary to pelvic endometriosis [6] | side effect profile, systemic androgen-like effects [6] | effect on chronic pelvic pain [7] | systemic androgenic side effects [7] | efficacy in treating pelvic endometriosis [10] | side effects such as seborrhea, acne and weight gain, versus oral ([11]; vaginal administration) | effectiveness in reducing dyspareunia and dysmenorrhea versus oral gestrinone therapy ([11]; vaginal route, women with endometriosis)
low to undetectable | undetectable | exceeded 100 ng/ml | undetectable | high | undetectable | comparable | much lower | C#C[C@]1(O)CC[C@H]2[C@@H]3CCC4=Cc5oncc5C[C@]4(C)[C@H]3CC[C@@]21C [danazol, 17α-ethynyl-17β-hydroxy-4-androsteno[2,3-d]-isoxazole] | 13 | reduced dysmenorrhea and pelvic endometriosis | 17 | ≤ 3 months | remission | effective | paucity of systemic androgen-like effects | significantly reduced | lack of systemic androgenic side effects | very effective |  | 
 |  |  |  |  |  |  |  | C#C[C@]1(O)CC[C@H]2[C@@H]3CCC4=CC(=O)CCC4=C3C=C[C@@]21CC [gestrinone, ethylnorgestrienone] |  |  |  |  |  |  |  |  |  |  | significantly lower | equally effective
